The test system of series [1] is Leishmania donovani. The series can be described thus: Antileishmanial activity against axenic amastigote stage of Leishmania donovani MHOM/SD/1962/1S-Cl2d assessed as parasite growth inhibition at 50 uM after 24 hrs by AlamarBlue assay (reference value: 0.0 +/- 4.6%). The series is classed as functional. The conditions noted are these: read-out: GI. Background: Alamar Blue is a resazurin reagent that responds to reducing activity.

Series [2] deals with Leishmania donovani. The series can be described thus: Antileishmanial activity against axenic amastigote stage of Leishmania donovani MHOM/SD/1962/1S-Cl2d assessed as parasite growth inhibition at 15 uM after 24 hrs by AlamarBlue assay (reference value: 1.5 +/- 3.8%). Conditions: read-out: GI. The series is classed as functional.
Series [3] relates to Leishmania donovani. As to the kind of experiment: Antileishmanial activity against axenic amastigote stage of Leishmania donovani MHOM/SD/1962/1S-Cl2d assessed as parasite growth inhibition at 5 uM after 24 hrs by AlamarBlue assay (reference value: 0.0 +/- 0.9%). The series is classed as functional. Conditions: read-out: GI.
Series [4] relates to THP-1. The series can be described thus: Cytotoxicity against human THP1 cells assessed as cell viability after 48 hrs by AlamarBlue assay. The conditions noted are these: THP-1, 48 h. The series is classed as cell-based.
Series [5] concerns Leishmania donovani. The series can be described thus: Antileishmanial activity against axenic amastigote stage of Leishmania donovani MHOM/SD/1962/1S-Cl2d assessed as parasite growth inhibition after 24 hrs by AlamarBlue assay. The series is classed as functional, organism-based.
Series [6] in a line: Selectivity index, ratio of IC50 for human THP1 cells to IC50 for axenic amastigote stage of Leishmania donovani MHOM/SD/1962/1S-Cl2d. The series is classed as toxicity, cell-based, THP-1. Conditions: read-out: Ratio IC50.
Series [7] relates to Leishmania donovani. As to the kind of experiment: Antileishmanial activity against intracellular amastigote stage of Leishmania donovani infected in human THP1 cells assessed as parasite growth inhibition at 1 uM after 48 hrs by luciferase reporter gene assay relative to control. The series is classed as functional. Conditions: THP-1, 48 h, read-out: GI. Background: In a reporter assay the amount or activity of a reporter protein is the signal.

For series [8], the system named is Leishmania donovani. The series can be described thus: Antileishmanial activity against axenic amastigote stage of Leishmania donovani MHOM/SD/1962/1S-Cl2d assessed as parasite growth inhibition at 1 uM after 24 hrs by AlamarBlue assay relative to control. Conditions: read-out: GI. The series is classed as functional.
The subject of series [9] is Leishmania donovani. The series can be described thus: Antileishmanial activity against intracellular amastigote stage of Leishmania donovani infected in human THP1 cells assessed as parasite growth inhibition at 5 uM after 48 hrs by luciferase reporter gene assay relative to control. The series is classed as functional. The conditions noted are these: THP-1, 48 h, read-out: GI.

For `C=C(C)[C@@H]1CC[C@]2(CO)CC[C@]3(C)[C@H](CC[C@@H]4[C@@]5(C)Cc6cnoc6C(C)(C)[C@@H]5CC[C@]43C)[C@@H]12`, the inhibition of growth at 50 µM in [1] was determined as 56.9%.

`C=C(C)[C@@H]1CC[C@]2(C=O)CC[C@]3(C)[C@H](CC[C@@H]4[C@@]5(C)Cc6cnoc6C(C)(C)[C@@H]5CC[C@]43C)[C@@H]12`: the inhibition of growth at 50 µM in series [1] was 34.2%. The inhibition of growth at 15 µM in [2] was 21.1%.

As for `CC1(C)CC[C@]23CC[C@]4(C)[C@H](CC[C@@H]5[C@@]6(C)Cc7c([nH]c8ccccc78)C(C)(C)[C@@H]6CC[C@]54C)[C@H]2[C@H]1OC3`, in series [1], the inhibition of growth at 50 µM came to 19.8%. Also, in series [2], the inhibition of growth at 15 µM stood at 18.5%.

On to `CC1(C)CC[C@]23CC[C@]4(C)[C@H](CC[C@@H]5[C@@]6(C)Cc7c([nH]c8ccc(F)cc78)C(C)(C)[C@@H]6CC[C@]54C)[C@H]2[C@H]1OC3`, for which the inhibition of growth at 50 µM in series [1] is 6.8%. The inhibition of growth at 5 µM in series [3] came to 0.2%. Further, in series [2], the inhibition of growth at 15 µM came to 10.2%.

As to `C=C(C)[C@@H]1CC[C@]2(C(=O)O)CC[C@]3(C)[C@H](CC[C@@H]4[C@@]5(C)CC[C@H](O)C(C)(C)[C@@H]5CC[C@]43C)[C@@H]12` [BETULINIC ACID], the inhibition of growth at 50 µM in series [1] was found to be 61.1%.

Consider `C=C(C)[C@@H]1CC[C@]2(C(N)=O)CC[C@]3(C)[C@H](CC[C@@H]4[C@@]5(C)Cc6nccnc6C(C)(C)[C@@H]5CC[C@]43C)[C@@H]12`, for which, in series [1], the inhibition of growth at 50 µM was found to be 94.9%. For the same compound, in series [2], the inhibition of growth at 15 µM is 35.2%.

As to `C=C(C)[C@@H]1CC[C@]2(COC(C)=O)CC[C@]3(C)[C@H](CC[C@@H]4[C@@]5(C)Cc6cnoc6C(C)(C)[C@@H]5CC[C@]43C)[C@@H]12`, in [1], the inhibition of growth at 50 µM came to 6.1%.

As usually defined, the IC50 is the midpoint of a concentration-inhibition curve. Regarding `C=C(C)[C@@H]1CC[C@]2(C(=O)O)CC[C@]3(C)[C@H](CC[C@@H]4[C@@]5(C)CC[C@H](OC(=O)CC(C)(C)C(=O)O)C(C)(C)[C@@H]5CC[C@]43C)[C@@H]12` [BEVIRIMAT], the IC50 in series [4] came out at 54 µM; in series [5], 7.2 µM. Further, the inhibition of growth at 50 µM in [1] came out at 100%. In addition, the inhibition of growth at 5 µM in [3] was 59%. Also, the inhibition of growth at 15 µM in series [2] came out at 69.1%. Further, the selectivity ratio in series [6] was 7.5.

As for `C=C(C)[C@@H]1CC[C@]2(C(N)=O)CC[C@]3(C)[C@H](CC[C@@H]4[C@@]5(C)Cc6cnoc6C(C)(C)[C@@H]5CC[C@]43C)[C@@H]12`, the inhibition of growth at 50 µM in [1] was 84.3%. Further, the inhibition of growth at 15 µM in [2] came to 16.7%.

On to `C[C@@H]1[C@H](O)[C@@H](C)/C=C/C=C/C=C/C=C/C=C/C=C/C=C/[C@H](O[C@@H]2O[C@H](C)[C@@H](O)[C@H](N)[C@@H]2O)C[C@@H]2O[C@](O)(C[C@@H](O)C[C@@H](O)[C@H](O)CC[C@@H](O)C[C@@H](O)CC(=O)O[C@H]1C)C[C@H](O)[C@H]2C(=O)O` [AMPHOTERICIN B], for which the figures for the inhibition of growth at 1 µM in series [7] and in series [8] were 96.7% and 99.9%, respectively.

As to `C=C(C)[C@@H]1CC[C@]2(C(=O)O)CC[C@]3(C)[C@H](CC[C@@H]4[C@@]5(C)Cc6nccnc6C(C)(C)[C@@H]5CC[C@]43C)[C@@H]12`, in [1], the inhibition of growth at 50 µM came to 92.7%. Besides, the inhibition of growth at 5 µM in series [3] amounted to 20.3%. For the same compound, in series [2], the inhibition of growth at 15 µM was determined as 79.7%. In addition, the IC50 in series [5] was 13.2 µM.

In the case of `C=C(C)[C@@H]1CC[C@]2(C(=O)O)CC[C@]3(C)[C@H](CC[C@@H]4[C@@]5(C)Cc6cnoc6C(C)(C)[C@@H]5CC[C@]43C)[C@@H]12`, in series [1], the inhibition of growth at 50 µM was determined as 95.7%. Moreover, in [2], the inhibition of growth at 15 µM is 15.6%.

Regarding `C=C(C)[C@@H]1CC[C@]2(C(=O)O)CC[C@]3(C)[C@H](CC[C@@H]4[C@@]5(C)Cc6c([nH]c7ccccc67)C(C)(C)[C@@H]5CC[C@]43C)[C@@H]12`, in series [1], the inhibition of growth at 50 µM turned out to be 23.4%. Moreover, in series [3], the inhibition of growth at 5 µM was 5%. In addition, the inhibition of growth at 15 µM in series [2] amounted to 27.4%.

Regarding `C=C(C)[C@@H]1CC[C@]2(C(=O)O)CC[C@]3(C)[C@H](CC[C@@H]4[C@@]5(C)Cc6c([nH]c7ccc(OC)cc67)C(C)(C)[C@@H]5CC[C@]43C)[C@@H]12`, in series [1], the inhibition of growth at 50 µM was 29.3%. Further, the inhibition of growth at 5 µM in series [3] turned out to be 14%. Further, in series [2], the inhibition of growth at 15 µM came to 17.5%.

`C=C(C)[C@@H]1CC[C@]2(C(=O)O)CC[C@]3(C)[C@H](CC[C@@H]4[C@@]5(C)CCC(=O)NC(C)(C)[C@@H]5CC[C@]43C)[C@@H]12`: the IC50 in [4] is 55.5 µM; in [5], 4.3 µM. For the same compound, the inhibition of growth at 50 µM in series [1] worked out at 98.2%. In addition, the inhibition of growth at 5 µM in [3] stood at 52%; in [9] it was 54%. Further, the inhibition of growth at 15 µM in series [2] came out at 75.2%. Also, the selectivity ratio in series [6] was determined as 12.9.

Consider `C=C(C)[C@@H]1CC[C@]2(C(=O)O)CC[C@]3(C)[C@H](CC[C@@H]4[C@@]5(C)Cc6c[nH]nc6C(C)(C)[C@@H]5CC[C@]43C)[C@@H]12`, for which the inhibition of growth at 50 µM in series [1] is 60.2%.

In the case of `CC(C)[C@@H]1CC[C@]2(C(=O)O)CC[C@]3(C)[C@H](CC[C@@H]4[C@@]5(C)Cc6cnoc6C(C)(C)[C@@H]5CC[C@]43C)[C@@H]12`, in series [1], the inhibition of growth at 50 µM is 2.4%.

In the case of `C=C(C)[C@@H]1CC[C@]2(C(=O)O)CC[C@]3(C)[C@H](CC[C@@H]4[C@@]5(C)CCC(=O)C(C)(C)[C@@H]5CC[C@]43C)[C@@H]12` [BETUNOLIC ACID], in series [1], the inhibition of growth at 50 µM was 98.6%. Besides, the inhibition of growth at 15 µM in series [2] is 45.9%.

On to `C=C(C)[C@@H]1CC[C@]2(C(=O)O)CC[C@]3(C)[C@H](CC[C@@H]4[C@@]5(C)Cc6cccnc6C(C)(C)[C@@H]5CC[C@]43C)[C@@H]12`, for which the inhibition of growth at 50 µM in series [1] amounted to 87.9%. In series [2], the inhibition of growth at 15 µM was 25.6%.

On to `C=C(C)[C@@H]1CC[C@]2(/C=N/O)CC[C@]3(C)[C@H](CC[C@@H]4[C@@]5(C)Cc6nccnc6C(C)(C)[C@@H]5CC[C@]43C)[C@@H]12`, for which the inhibition of growth at 50 µM in [1] is 2.8%.

The values are drawn from ChEMBL document CHEMBL3132818, “Heterocycle-fused lupane triterpenoids inhibit Leishmania donovani amastigotes” (Medchemcomm, 2014).
